Assay results published in patent publication EP1344834A2, “Methods for the toxicity prediction of a compound” (F. HOFFMANN-LA ROCHE AG, priority 2002, dated 2003).
Like-named read-outs stand apart in the source and are kept apart here.

Experiments:
[1] = test system: expression profile in liver; assay: Support Vector Machine classification of liver expression profiles; conditions: compounds not present in the initial training set; expression profiles of individual animals; Figures 8 and 9
Procedure: Adult male Wistar rats were dosed in vivo and the resulting expression profile in liver was determined. SVMs were built for the discrimination between 3 different classes of hepatotoxicants, non-toxic substances and controls. The training set consisted of 180 gene expression profiles from individual animals treated with direct acting, cholestatic, steatotic, non-toxic compounds and corresponding vehicle-dosed controls. As a first step the chips were rescaled to a median value of 0 and a standard deviation of 1. […] Multi-class classification for a given test chip was then carried out by combining the outputs of all binary. classifiers. A leave-one-out cross validation procedure was applied to assess the quality of the trained machines with respect to the training data. […] By removing all replicates of one compound from the training data, followed by classifying these chips with the resulting decision function, the individual contribution of the given compound for a successful classifier could be examined. RFE was used to investigate the relationship between the number of genes for generating the classifiers, the resulting prediction accuracy, cross-validation errors and the number of used support vectors. The first iteration reduced the gene count to a multiple of 2. In each subsequent iteration the gene count was halved until 32 genes remained. […]

[2] = test system: Gadd45; assay: Quantitative RT-PCR of GADD-family genes in liver after in vivo dosing; design: species or system Wistar rats; conditions: control = 1.0
Procedure: (§1) The quality of RNA was assessed with gel electrophoresis.
(§2) The induction of these genes correlates with the histopathological findings in a time related fashion: While PEG-3 seems to be an early marker, GADD-45 and […] appear regulated at later time points, when the tissue damage is obvious by conventional endpoints.

[3] = test system: PEG3; assay: as above; design: species or system Wistar rats; conditions: control = 1.0
Procedure: as §1, §2

[4] = test system: Gadd153; assay: as above; design: species or system Wistar rats; conditions: control = 1.0
Procedure: as §1, §2

[5] = test system: genes from the GADD family; assay: RT-PCR confirmation of induction of GADD family genes by direct acting compounds; format: in vivo, Wistar rats; conditions: rat liver (summary of Table 9)
Procedure: as §1, §2

[6] = test system: EGR-1; assay: Quantitative RT-PCR of EGR-1 in liver after in vivo dosing; design: species or system rats; conditions: every 12 Hours, sacrificed 3 hours after the last administration, control = 1.0
Procedure: as §1
(§3) Tolcapone (Tasmar) is a human hepatotoxin with no known toxicity in the rat.

[7] = test system: EGR1; assay: Gene expression analysis (GeneChip) of EGR1 after exposure of rats; format: in vivo; conditions: high inter-individual variability
Procedure: as §1, §3

[8] = test system: marker genes; conditions: rat, in vivo
Procedure: (§4) Male Wistar rats (generally 5 animals/dose-group) were purchased from BRL (Fullingsdorf, Switzerland) and housed individually. Treated animals were dosed either orally, intraperitoneally, or intravenously with several doses of test compounds (Table 1). The test compounds were categorized according to their toxic manifestation in the rat liver. Control animals received the same volume of vehicle as placebo. Necropsy was performed 6 or 24 hours after a single administration and liver samples from the left medial lobe were placed immediately in RNALater (Ambion, TX, USA) for RNA extraction and gene expression analysis. Samples in RNALater were stored at -20°C until further processing.
(§5) RNA isolation from hepatocytes was typically performed by resuspending approximately 3 Mio. Cells/1.2 mL RNAzol (Tel-Test Inc., TX, USA). […] Total RNA was isolated according to the manufacturer's instruction and quantified by measuring the optical density at 280 nm. The quality of RNA was assessed with gel electrophoresis.
(§6) The regulation of the mRNA levels of several candidate genes (Table 4) was verified with quantitative RT-PCR. […] For each performed RT-PCR reaction, the specificity of the assay was evaluated with dissociation curve software (Applied Biosystems), as well as by assessment of the size of the product using either gel electrophoresis or Agilent Bioanalyzer. […]

[9] = test system: CYP2B2; conditions: rat, in vivo
Procedure: as §4
(§7) RNA isolation from hepatocytes was typically performed by resuspending approximately 3 Mio. Cells/1.2 mL RNAzol (Tel-Test Inc., TX, USA). […] Total RNA was isolated according to the manufacturer's instruction and quantified by measuring the optical density at 280 nm. The quality of RNA was assessed with gel electrophoresis. […]
(§8) After hybridization and scanning, the expression level of each gene was calculated by subtracting the fluorescence intensity of the mismatch probes from the match signal (=average difference) using the [sequence] […] Gene expression data were further analyzed with an in-house-developed data analysis tool (RACE-A, Hoffmann-La Roche, Basel, Switzerland). […]

[10] = test system: AH-R; conditions: rat, in vivo
Procedure: as §4, §5, §6

[11] = test system: CYP2B2; conditions: rat, in vivo; remark: listed apart in the source
Procedure: as §4, §5, §6

[12] = test system: PC3 (BTG2); conditions: rat, in vivo
Procedure: as §4, §7, §8

[13] = test system: AH-R; conditions: rat, in vivo; remark: listed apart in the source
Procedure: as §4, §7, §8

[14] = test system: CYP2B; assay: Western-blot of liver extracts with antibody specific for CYP2B; format: in vivo, rat
Procedure: In addition, Western blots were performed using specific antibodies against the cytochrome P450 CYP2B family in order to evaluate if the clear induction of messenger RNA also led to an increase in the hepatic protein levels. […] This is due to the time lag between protein and mRNA induction (Fig. 11).

[15] = test system: marker genes; assay: RT-PCR of marker genes, differentiation of toxic and non-toxic 5-HT6 receptor antagonists (Fig. 10); conditions: rat liver, some of the selected genes
Procedure: as §4, §5, §6

[16] = 4500 mmol/kg, sampling time 2 hours
[17] = 4500 mmol/kg, sampling time 6 hours
[18] = 4500 mmol/kg, sampling time 24 hours
[19] = 10 mg/kg, sampling time 2 hours
[20] = 10 mg/kg, sampling time 6 hours
[21] = 10 mg/kg, sampling time 24 hours
[22] = 60 mg/kg, sampling time 2 hours
[23] = 60 mg/kg, sampling time 6 hours
[24] = 60 mg/kg, sampling time 24 hours
[25] = 2 mg/kg, sampling time 24 hours
[26] = 50 mg/kg, sampling time 6 hours

Compound: Clc1ccccc1Cl [1,2-dichlorobenzene]
- classification by support vector machines (identification of compound class) [1]: direct acting compound
- PCR Gadd45 [2, 16]: 2.3 fold induction
- PCR Gadd45 [2, 17]: 4.9 fold induction
- PCR Gadd45 [2, 18]: 53.0 fold induction
- PCR PEG3 ([3]; sampling time 2 hours): 3.9 fold induction
- PCR PEG3 ([3]; sampling time 6 hours): 1.9 fold induction
- PCR PEG3 ([3]; sampling time 24 hours): 54.6 fold induction
- PCR Gadd153 ([4]; sampling time 2 hours): 0.9 fold induction
- PCR Gadd153 ([4]; sampling time 6 hours): 0.6 fold induction
- PCR Gadd153 ([4]; sampling time 24 hours): 27.9 fold induction
- induction of genes from the GADD family, namely GADD-45, GADD-153 and PEG-3 [5]: induction

Compound: Clc1ccc(Cl)cc1 [1,4-dichlorobenzene]
- PCR Gadd45 [2, 16]: 1.7 fold induction
- PCR Gadd45 [2, 17]: 0.8 fold induction
- PCR Gadd45 [2, 18]: 7.2 fold induction
- PCR PEG3 ([3]; sampling time 2 hours): 0.8 fold induction
- PCR PEG3 ([3]; sampling time 6 hours): 0.7 fold induction
- PCR PEG3 ([3]; sampling time 24 hours): 4.2 fold induction
- PCR Gadd153 ([4]; sampling time 2 hours): 1.0 fold induction
- PCR Gadd153 ([4]; sampling time 6 hours): 0.9 fold induction
- PCR Gadd153 ([4]; sampling time 24 hours): 2.4 fold induction

Compound: O=[N+]([O-])c1ccc(O)c([N+](=O)[O-])c1 [Dinitrophenol]
- PCR EGR-1 ([6]; 10 mg/kg administered three times): 3.4 fold induction
- PCR EGR-1 ([6]; 30 mg/kg administered three times): 8.5 fold induction
- induction of EGR1 ([7]; 10 and 30 mg/kg): slight induction

Compound: CCN(CC)C(=O)/C(C#N)=C/c1cc(O)c(O)c([N+](=O)[O-])c1 [Entacapone]
- PCR EGR-1 ([6]; 600 mg/kg administered three times): 1.0 fold induction

Compound: NN [Hydrazine]
- PCR Gadd45 [2, 19]: 1.1 fold induction
- PCR Gadd45 [2, 20]: 9.9 fold induction
- PCR Gadd45 [2, 21]: 0.2 fold induction
- PCR Gadd45 [2, 22]: 1.0 fold induction
- PCR Gadd45 [2, 23]: 1.8 fold induction
- PCR Gadd45 [2, 24]: 1.0 fold induction
- PCR PEG3 [3, 19]: 3.4 fold induction
- PCR PEG3 [3, 20]: 6.3 fold induction
- PCR PEG3 [3, 21]: 2.1 fold induction
- PCR PEG3 [3, 22]: 20.4 fold induction
- PCR PEG3 [3, 23]: 3.8 fold induction
- PCR PEG3 [3, 24]: 11.9 fold induction
- PCR Gadd153 [4, 19]: 2.2 fold induction
- PCR Gadd153 [4, 20]: 4.0 fold induction
- PCR Gadd153 [4, 21]: 0.4 fold induction
- PCR Gadd153 [4, 22]: 1.0 fold induction
- PCR Gadd153 [4, 23]: 0.9 fold induction
- PCR Gadd153 [4, 24]: 1.7 fold induction
- induction of genes from the GADD family, namely GADD-45, GADD-153 and PEG-3 [5]: induction

Compound: Nc1ccc(S(=O)(=O)c2cc(Br)nc(N3CCCC3)c2)cc1 [Ro66-0074, 4-(2-Bromo-6-pyrrolidin-1-yl-pyridine-4-sulfonyl)-phenylamine]
- expression levels of few marker genes (RT-PCR, Fig. 10) [8]: slight induction
- CYP2B2 Affymetrix ([9]; 360 min): -1.2
- CYP2B2 Affymetrix ([9]; 1440 min): 1.1
- AH-R RT-PCR ([10]; 360 min): 1.7
- AH-R RT-PCR ([10]; 1440 min): 1.2
- CYP2B2 RT-PCR ([11]; 360 min): 8.4
- CYP2B2 RT-PCR ([11]; 1440 min): 1.3
- PC3 (BTG2) Affymetrix ([12]; 360 min): 0.4
- PC3 (BTG2) Affymetrix ([12]; 1440 min): 0.6
- AH-R Affymetrix ([13]; 360 min): 1.0
- AH-R Affymetrix ([13]; 1440 min): 1.0

Compound: CC(=N)S [Thioacetamide]
- PCR Gadd45 ([2]; 2 mg/kg, sampling time 6 hours): 8.1 fold induction
- PCR Gadd45 [2, 25]: 0.0 fold induction
- PCR Gadd45 [2, 20]: 2.9 fold induction
- PCR Gadd45 [2, 21]: 1.7 fold induction
- PCR Gadd45 [2, 26]: 27.6 fold induction
- PCR PEG3 ([3]; 2 mg/kg, sampling time 6 hours): 2.0 fold induction
- PCR PEG3 [3, 25]: 0.9 fold induction
- PCR PEG3 [3, 20]: 1.9 fold induction
- PCR PEG3 [3, 21]: 0.5 fold induction
- PCR PEG3 [3, 26]: 7.8 fold induction
- PCR Gadd153 ([4]; 2 mg/kg, sampling time 6 hours): 0.9 fold induction
- PCR Gadd153 [4, 25]: 0.0 fold induction
- PCR Gadd153 [4, 20]: 1.3 fold induction
- PCR Gadd153 [4, 21]: 0.9 fold induction
- PCR Gadd153 [4, 26]: 2.5 fold induction
- induction of genes from the GADD family, namely GADD-45, GADD-153 and PEG-3 [5]: induction

Compound: Cc1ccc(C(=O)c2cc(O)c(O)c([N+](=O)[O-])c2)cc1 [Tolcapone (Tasmar), Tolcapone]
- PCR EGR-1 ([6]; 300 mg/kg administered three times): 17.6 fold induction
- induction of EGR1 ([7]; high dose 300 mg/kg): slight induction

Compound: O=C(O)CCCCCCNC1c2ccccc2CCc2ccccc21 [amineptine]
- classification by support vector machines (identification of compound class) [1]: steatotic compound

Compound: (4-Amino-N-(6-bromo-1 H -indol-4-yl)-benzenesulfonamide [Ro65-7199]
- induction of CYP2B (hepatic protein levels, Western blot) ([14]; 6 hours after administration): could not be detected
- protein levels of CYP2B (Western blot) ([14]; 24 hours and 7 days after treatment): closely paralleled the amounts of mRNA
- expression levels of few marker genes (RT-PCR, Fig. 10) [15]: larger effect
